Like-named read-outs stand apart in the source and are kept apart here.

Assay [1] deals with T1, human 5HT1A-serotonergic receptor (Homo sapiens, UniProt P08908).
T1 construct: expressed in transfected cells; host or cells: HeLa (human), stably transfected; membranes
T1 sequence (P08908 1-422): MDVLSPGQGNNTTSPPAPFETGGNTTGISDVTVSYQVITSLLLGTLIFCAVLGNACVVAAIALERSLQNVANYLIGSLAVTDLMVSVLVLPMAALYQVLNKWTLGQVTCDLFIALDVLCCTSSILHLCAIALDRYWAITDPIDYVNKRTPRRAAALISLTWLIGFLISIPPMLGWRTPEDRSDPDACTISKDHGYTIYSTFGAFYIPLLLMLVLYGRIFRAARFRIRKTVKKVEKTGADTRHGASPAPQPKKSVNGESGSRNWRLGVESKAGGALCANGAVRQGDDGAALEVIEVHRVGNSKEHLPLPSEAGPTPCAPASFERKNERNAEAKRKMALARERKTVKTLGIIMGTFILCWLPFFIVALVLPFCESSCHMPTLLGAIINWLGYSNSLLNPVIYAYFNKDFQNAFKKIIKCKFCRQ
Briefly: Radioligand binding to recombinant 5-HT1A receptor ([3H]8-OH-DPAT, HeLa cell membranes). Conditions: 1 nM [3H]8-OH-DPAT; Ki from IC50 by the Cheng equation; read-out: Ki (nM), binding affinity for 5HT1A receptor. The method, then:
Genomic clone G-21 encoding the human 5HT1A-serotonergic receptor was stably transfected in a human cell line (HeLa). HeLa cells were grown as monolayers in Dulbecco's modified Eagle medium (DMEM), containing 10% fetal bovine serum and gentamycin (100 μg/ml) at 37° C. in a humidified atmosphere of 5% CO2 and air. The cells were detached from the growth flask at 95% confluence by a cell scraper and were lysed in cold 5 mM Tris and 5 mM EDTA buffer (pH 7.4). The homogenates were centrifuged at 40000×g×20 minutes and the pellets were resuspended in a small volume of cold 5 mM Tris and 5 mM EDTA buffer (pH 7.4) and immediately frozen and stored at −70° C. until use. On the day of experiment, the cell membranes were resuspended in incubation buffer: 50 mM Tris (pH 7.4), 2.5 mM MgCl2, 10 μM pargyline (Fargin et al., Nature 335, 358-360, 1988). The membranes were incubated in a final volume of 0.32 ml for 30 minutes at 30° C. with 1 nM [^3H]8-OH-DPAT, in the absence or presence of the test compounds. Non-specific binding was determined in the presence of 10 μM 5-HT. Incubation was stopped by addition of cold Tris buffer and rapid filtration through UniFilter GF/C plate.
The affinity of the tested compounds was evaluated as inhibition of specific binding of the radioligand to 5-HT1A receptor (IC50) by using the non-linear curve-fitting program Allfit (De Lean et al., Am. J. Physiol. 235, E97-E102 (1978)). The IC50 value was converted to an affinity constant (Ki) by the equation of Cheng et al., Biochem. Pharmacol. 22, 3099-3108 (1973).

The target in the next assay is T2, 5-HT1A receptors (Rattus norvegicus, UniProt P19327).
T2 construct: from tissue; host or cells: living male Sprague-Dawley rats (whole animal, behavioural read-out)
T2 sequence (P19327 1-422): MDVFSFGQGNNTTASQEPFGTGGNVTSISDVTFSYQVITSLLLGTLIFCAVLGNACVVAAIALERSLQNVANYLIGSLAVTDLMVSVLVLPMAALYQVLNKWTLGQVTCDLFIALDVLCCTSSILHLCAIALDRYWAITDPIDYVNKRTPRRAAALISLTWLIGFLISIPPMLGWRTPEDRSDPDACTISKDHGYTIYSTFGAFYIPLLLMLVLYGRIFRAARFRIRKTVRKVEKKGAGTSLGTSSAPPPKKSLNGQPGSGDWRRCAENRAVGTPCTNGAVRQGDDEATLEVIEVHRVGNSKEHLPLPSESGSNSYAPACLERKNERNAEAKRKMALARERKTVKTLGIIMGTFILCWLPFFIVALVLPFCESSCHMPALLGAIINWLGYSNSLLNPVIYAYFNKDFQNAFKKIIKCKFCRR
Briefly: Inhibition of serotonergic syndrome (forepaw treading) induced by 8-OH-DPAT in rats (post-synaptic antagonism). Type of assay: in vivo. Conditions: rat, 10 mg/kg p.o. The method, then: The inhibitory effect of 5-HT1A-receptor antagonists on stereotyped forepaw treading induced in rats by subcutaneous injection of 8-OH-DPAT was evaluated by the method of Tricklebank (Tricklebank et al., Eur. J. Pharmacol., 117: 15, 1985) with minor modifications as described below.
Male Sprague-Dawley rats [Crl: CD® (SD) IGS BR] weighing 150-175 g from Charles River Italia were used. The animals were housed with free access to food and water and maintained on a forced 12-hour-light/12-hour-dark cycle at 22-24° C. of temperature. On the day of the experiment, the rats were placed singly in clear plastic containers, 10-15 minutes before oral administration of the vehicle or compounds to be tested. For evaluation of antagonistic activity, the compounds were administered 1 and 4 hours before induction of stereotypy by 8-OH-DPAT (1 mg/kg subcutaneously). Observation sessions lasted 30 seconds and began 3 minutes after 8-OH-DPAT treatment and were repeated every 3 minutes over a period of 15 minutes.
The appearance of the symptoms induced by postsynaptic stimulation of 5-HT1A receptors was noted, and the intensity was scored using an intensity scale in which: 0=absent, 1=equivocal, 2=present and 3=intense. Behavioural scores for treated rats were accumulated throughout the observation time (5 observation periods) and expressed as mean values of 4 rats/dose. Change in mean values of treated animals in comparison with control (vehicle) group, expressed as per-cent inhibition, was used to quantify the antagonistic activity.
In order to quantitate the potency of the compound of Example 24 in inhibiting the stereotypy (forepaw treading) induced by 8-OH-DPAT, an ED50 value (dose inhibiting by 50% the forepaw treading) was evaluated by means of linear regression using the least square method.

In assay [2] the target is T3, human cloned 5-HT1A receptors (Homo sapiens, UniProt P08908).
T3 construct: expressed in transfected cells; host or cells: HeLa (human), stably transfected; membranes
T3 sequence (P08908 1-422): T1 sequence (P08908 1-422)
As to the kind of experiment: [35S]GTPγS binding, functional activity. Also noted: key: neutral antagonists (NA); inverse agonists (IA). The settings on record: HeLa membranes with human 5-HT1A. Type of assay: biochemical. The method, then:
On the date of the experiment, cell membranes from HeLa cells transfected with human cloned 5-HT1A receptors were resuspended in buffer pH 7.4 containing 20 mM HEPES, 3 mM MgCl2 and 120 mM NaCl (Stanton, J. A.; Beer, M. S. Eur. J. Pharmacol. 320, 267-275, 1997). The membranes were incubated with 10 μM GDP and decreasing concentrations of test drugs (from 100 μM to 0.1 nM) or decreasing concentrations of 5-HT (from 100 μM to 0.1 nM, reference curve) for 20 min at 30° C. in a final volume of about 0.25 ml. [^35S]GTPγS (200-250 pM in 10 μl) was added to samples and incubated for a further 30 min at 30° C. Non-specific binding was determined in the presence of 10 μM GTPγS. The incubation was stopped by addition of ice-cold HEPES buffer and rapid filtration on Unifilter GF/C filters, using a Filtermate cell harvester (Packard). The filters were washed four times with total 1.2 ml of same buffer. Radioactivity was counted by liquid scintillation spectrometry with efficiency >90% (TopCount Packard). Stimulation of [^35S]GTPγS binding induced by the compounds tested was expressed as % increase in binding above basal value, being the maximal stimulation observed with 5-HT taken as 100%. The concentration-response curve of the agonistic activity was analyzed by non linear fitting program (De Lean et al., Am. J. Physiol. 235, E97-E102, 1978).
A stimulation of [^35S]GTPγS binding represented the functional correlate of the binding of an agonist compound at the 5-HT1A receptors. Stimulation induced by the endogenous ligand 5-HT was considered the maximal stimulation attainable. Compounds stimulating [^35S]GTPγS binding at a lower level were considered as partial agonists. […] Compounds that reduced [^35S]GTPγS binding were considered as inverse agonists.
For orientation: GTPγS is a poorly hydrolysed GTP analogue; its binding reports G protein activation.

Assay [3] relates to rhythmic bladder-voiding contractions. Briefly: Rhythmic bladder-voiding contractions induced by bladder filling in anaesthetised rats. Type of assay: in vivo, rat. Conditions: intravenous administration. As to the method:
Female Sprague-Dawley rats weighing 225-275 g (Crl: CD® (SD) IGS BR, Charles River Italia) were used. The animals were housed with free access to food and water and maintained on a forced 12-hour alternating light-dark cycle at 22-24° C. for at least one week, except during the experiment. The activity on rhythmic bladder voiding contractions was evaluated according to the method of Dray (Dray J., Pharmacol. Methods, 13:157, 1985), with some modifications as in Guarneri (Guarneri, Pharmacol. Res. 27:173, 1993). Briefly, the rats were anaesthetised by subcutaneous injection of 1.25 g/kg (5 ml/kg) urethane, after which the urinary bladder was catheterised via the urethra using PE 50 polyethylene tubing filled with physiological saline. The catheter was tied in place with a ligature around the external urethral orifice and was connected to conventional pressure transducers (Statham P23 ID/P23 XL). […] The bladder was then filled via the recording catheter by incremental volumes of warm (37° C.) saline until reflex bladder-voiding contractions occurred (usually 0.8-1.5 ml). For intravenous injection of bioactive compounds, PE 50 polyethylene tubing filled with physiological saline was inserted into the jugular vein.
From the cystometrogram, the number of contractions recorded 15 minutes before (basal values) and after treatment, as well as the mean amplitude of these contractions (mean height of the peaks in mmHg), was evaluated.
Since most compounds produced an effect that was relatively rapid in onset and led to a complete cessation of bladder contractions, bioactivity was conveniently estimated by measuring the duration of bladder quiescence (i.e., the time during which no contractions occurred). The number of tested animals showing a reduction in the number of contractions higher than 30% of that observed in the basal period was recorded too.
The extrapolated doses which induced a reduction in the number of contractions greater than 30% in 50% of the treated rats (ED50) were also evaluated by the method of Bliss (Bliss C. I., Quart J. Pharm. Pharmacol. 11, 192-216, 1938).

Setting [4] is: 1 h before 8-OH-DPAT 1 mg/kg s.c., read-out: % Inhibition of forepaw treading, 1 h.
Where [5] appears, read: 4 h before 8-OH-DPAT 1 mg/kg s.c., read-out: % Inhibition of forepaw treading, 4 h.

As a reminder, the Ki is a dissociation constant, usually derived from enzyme kinetics or from competition with a known ligand. The term inhibition denotes the drop in the measured response relative to a control, in per cent. With `COc1ccccc1N1CCN(CCC(C(=NO)C2CCCCC2)c2ccccc2F)CC1` (mixture of isomers) [Example 1, 1-Cyclohexyl-2-(2-fluorophenyl)-4-[4-(2-methoxyphenyl)-piperazin-1-yl]butan-1-one oxime], the Ki in assay [1] is 0.16 nM. The inhibition at 10 mg/kg on 5-HT1A receptors (setting [4]) came out at 71%.

Take `COc1ccccc1N1CCN(CC[C@@H](c2ccccc2F)[C@@H](C2CCCCC2)N(C(C)=O)C(C)=O)CC1` (racemic) [Example 8, N-Acetyl-N-{(RS,SR)-1-cyclohexyl-2-(2-fluorophenyl)-4-[4-(2-methoxyphenyl)piperazin-1-yl]butyl}acetamide]: the Ki in assay [1] turned out to be 0.68 nM. Besides, in assay [2], the “Functional Activity” value was “IA”.

Take `CON[C@H](C1CCCCC1)[C@@H](CCN1CCN(c2ccccc2OC)CC1)c1ccccc1F` (racemic) [Example 4a, (RS,SR)-N-{1-Cyclohexyl-2-(2-fluorophenyl)-4-[4-(2-methoxyphenyl)piperazin-1-yl]butyl}-O-methylhydroxylamine]: the Ki in assay [1] was 0.68 nM. In assay [2], the “Functional Activity” value is given as “IA”.

`CON[C@H](C1CCCCC1)[C@H](CCN1CCN(c2ccccc2OC)CC1)c1ccccc1F` (racemic) [Example 4b, (RS,RS)-N-{1-Cyclohexyl-2-(2-fluorophenyl)-4-[4-(2-methoxyphenyl)piperazin-1-yl]butyl}-O-methylhydroxylamine]: the figures for the inhibition at 10 mg/kg on 5-HT1A receptors (setting [4]) and on 5-HT1A receptors (setting [5]) were 71% and 67%, respectively.

Usually ED50 stands for the dose at which the effect has come halfway, by size or by number of responders. Turning to `Cc1c(-c2ccccc2)oc2c(C(=O)OCCN3CCCCC3)cccc2c1=O` [Flavoxate, flavoxate], the ED50 in assay [3] (Rattus norvegicus, read-out: ED50 (frequency) (extrapolated dose inducing a reduction of the number of contractions >30% in 50% of treated rats)) is 2.65 mg/kg. Besides, the “ED10 min (extrapolated dose inducing 10 minutes of disappearance of the contractions)” value in assay [3] was >10 mg/kg.

Take `COc1ccccc1N1CCN(CC[C@@H](c2ccccc2F)[C@@H](C2CCCCC2)N(C)C)CC1` (racemic) [Example 11, {(RS,SR)-1-Cyclohexyl-2-(2-fluorophenyl)-4-[4-(2-methoxyphenyl)-piperazin-1-yl]butyl}dimethylamine]: the Ki in assay [1] amounted to 1 nM. The inhibition at 10 mg/kg at 5-HT1A receptors (setting [4]) and at 5-HT1A receptors (setting [5]) was 56% throughout.

With `COc1ccccc1N1CCN(CCC(c2ccccc2F)C(NCc2ccccc2)C2CCCCC2)CC1` (stereo not drawn) [Example 13, (RS,SR)- and (RS,RS)-N-Benzyl-{1-cyclohexyl-2-(2-fluorophenyl)-4-[4-(2-methoxyphenyl)piperazin-1-yl]butyl}amine], the Ki in assay [1] was 0.3 nM. The “Functional Activity” value in assay [2] is “IA”.

As for `COc1ccccc1N1CCN(CC[C@@H](c2ccccc2F)[C@H](NC(=O)N(C)C)C2CCCCC2)CC1` (racemic) [Example 21, 3-{(RS,SR)-1-Cyclohexyl-2-(2-fluorophenyl)-4-[4-(2-methoxyphenyl)-piperazin-1-yl]butyl}-1,1-dimethylurea], in assay [1], the Ki was 2.1 nM. Further, the inhibition at 10 mg/kg at 5-HT1A receptors (setting [4]) turned out to be 94%; at 5-HT1A receptors (setting [5]) it was 65%.

In the case of `CONC(C1CCCCC1)C(CCN1CCN(c2ccccc2OC)CC1)c1ccccc1F` (mixture of isomers) [Example 4, N-{1-Cyclohexyl-2-(2-fluorophenyl)-4-[4-(2-methoxyphenyl)piperazin-1-yl]butyl}-O-methylhydroxylamine], the Ki in assay [1] amounted to 0.88 nM. Also, the inhibition at 10 mg/kg turned out to be 86% on 5-HT1A receptors (setting [4]) and 68% at 5-HT1A receptors (setting [5]).

The values above are taken from patent US20070270436A1, “NOVEL AMINO- AND IMINO-ALKYLPIPERAZINES” (Recordati Ireland Limited, priority 2006, published 2007).
